Structures are written as SMILES.

For orientation: inhibition means the percentage by which the read-out fell short of the control. As a reminder, the IC50 is the concentration at which inhibition is half-maximal. A low value points to greater potency.

In experiment [1] the target is T1, Prostaglandin G/H synthase 1 (Homo sapiens, UniProt P23219). The conditions noted are these: at 30 µM.
Description: Inhibition of COX1 at 30 uM
Experiment [2] concerns Mus musculus. Nature of the experiment: Antiinflammatory activity against TPA-induced mouse edema model assessed as reduction in ear edema at 0.5 mg/ear. The format is functional.
The target in experiment [3] is T1, Prostaglandin G/H synthase 1. Nature of the experiment: Inhibition of COX1.
Experiment [4] concerns the target T2, Prostaglandin G/H synthase 2 (Homo sapiens) (UniProt P35354).
T2 sequence (whole entry): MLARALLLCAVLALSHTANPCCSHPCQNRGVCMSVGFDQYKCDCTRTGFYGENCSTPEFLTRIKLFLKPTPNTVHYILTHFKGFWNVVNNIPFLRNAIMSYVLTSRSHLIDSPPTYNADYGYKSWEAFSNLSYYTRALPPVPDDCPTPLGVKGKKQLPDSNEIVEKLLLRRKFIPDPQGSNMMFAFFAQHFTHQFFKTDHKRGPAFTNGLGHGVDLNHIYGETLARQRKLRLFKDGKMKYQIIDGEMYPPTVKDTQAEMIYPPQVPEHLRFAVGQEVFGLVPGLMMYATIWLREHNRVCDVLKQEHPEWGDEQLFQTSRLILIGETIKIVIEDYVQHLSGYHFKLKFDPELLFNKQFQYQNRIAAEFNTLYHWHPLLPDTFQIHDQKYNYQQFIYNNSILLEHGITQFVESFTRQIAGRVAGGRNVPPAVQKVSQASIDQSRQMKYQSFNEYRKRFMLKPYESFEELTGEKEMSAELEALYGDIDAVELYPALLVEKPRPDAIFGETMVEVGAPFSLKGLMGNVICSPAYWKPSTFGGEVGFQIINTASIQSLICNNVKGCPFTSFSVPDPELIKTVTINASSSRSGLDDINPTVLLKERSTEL
The conditions noted are these: at 30 µM.
Description: Inhibition of COX2 at 30 uM

Experiment [5] concerns Mus musculus. Kind of experiment: Antiinflammatory activity against TPA-induced mouse edema model assessed as ear thickness at 0.5 mg/ear (Rbv = 0.270 +/- 0.008 mm). Type of experiment: functional.
Experiment [6] has as its target T3, Prostaglandin G/H synthase 2 (Homo sapiens, UniProt P35354).
T3 sequence (P35354 whole entry): T2 sequence (whole entry)

T1 sequence (P23219 whole entry): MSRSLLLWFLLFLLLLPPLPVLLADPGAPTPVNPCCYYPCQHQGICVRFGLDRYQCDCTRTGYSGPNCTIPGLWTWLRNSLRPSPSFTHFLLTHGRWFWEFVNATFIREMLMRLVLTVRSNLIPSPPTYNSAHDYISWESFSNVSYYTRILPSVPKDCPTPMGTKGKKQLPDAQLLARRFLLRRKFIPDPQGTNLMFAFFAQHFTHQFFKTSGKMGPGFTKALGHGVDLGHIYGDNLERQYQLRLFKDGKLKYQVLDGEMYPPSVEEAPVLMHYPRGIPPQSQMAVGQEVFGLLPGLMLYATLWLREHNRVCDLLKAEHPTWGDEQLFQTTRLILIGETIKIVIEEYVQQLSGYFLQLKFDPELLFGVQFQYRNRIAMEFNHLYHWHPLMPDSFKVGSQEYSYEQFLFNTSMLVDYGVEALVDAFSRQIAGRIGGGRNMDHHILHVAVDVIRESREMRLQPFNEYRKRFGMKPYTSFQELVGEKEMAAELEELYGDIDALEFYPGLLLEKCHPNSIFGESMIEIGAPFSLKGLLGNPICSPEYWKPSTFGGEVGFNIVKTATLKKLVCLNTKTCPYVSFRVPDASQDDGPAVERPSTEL

In the case of `C=CCOc1cc2oc(C)cc(=O)c2c(O)c1OCC=C`, the inhibition was 74.1% in experiment [1] and 89.5% in experiment [4]. In experiment [2], the “inhibition (INH)” value was determined as 80.24%. In addition, the IC50 in experiment [3] was found to be 21.6 µM; in experiment [6] it was 13.5 µM. Also, in experiment [5], the Activity was 0.053 mm.

For the compound `COc1cc2oc(C)cc(=O)c2c(OC(=O)c2ccccc2)c1OC`, the results for the inhibition in experiment [1] and in experiment [4] were 45.8% and 68.1%, respectively.

Turning to `COc1ccc2c(c1)c(CC(=O)O)c(C)n2C(=O)c1ccc(Cl)cc1` [INDOMETHACIN], in experiment [2], the “inhibition (INH)” value came to 81.48%. In addition, the Activity in experiment [5] was determined as 0.05 mm.

As to `COc1cc(/C=C/C(=O)CC(=O)/C=C/c2ccc(O)c(OC)c2)ccc1O`, in experiment [1], the inhibition was found to be 59%.

`CC(C)=CCOc1cc2oc(C)cc(=O)c2c(O)c1OCC=C(C)C`: the inhibition in experiment [1] is 82.3%; in experiment [4], 91.7%. Also, the “inhibition (INH)” value in experiment [2] came to 85.18%. Further, the IC50 in experiment [3] worked out at 17.2 µM; in experiment [6], 10.3 µM. Besides, the Activity in experiment [5] is given as 0.04 mm.

Regarding `COc1cc2oc(C)cc(=O)c2c(OC)c1OC`, the inhibition in experiment [1] stood at 70.3%; in experiment [4], 47.4%.

Consider `COc1cc2oc(C)cc(=O)c2c(OC(C)=O)c1OC`, for which the results for the inhibition in experiment [1] and in experiment [4] were 59% and 46.2%, respectively.

On to `C=CCOc1c(OC)cc2oc(C)cc(=O)c2c1O`, for which the inhibition in experiment [1] came out at 68.3%; in experiment [4] it was 81.5%. Further, the “inhibition (INH)” value in experiment [2] came out at 71.3%. For the same compound, the IC50 in experiment [3] is 26 µM; in experiment [6], 18 µM. The Activity in experiment [5] amounted to 0.077 mm.

As for `COc1cc2oc(C)cc(=O)c2c(OCc2ccccc2)c1OC`, the inhibition in experiment [1] came to 63.4%; in experiment [4], 48.1%.

Consider `COc1c(OC)c(O)c2c(=O)cc(C)oc2c1I`, for which the inhibition in experiment [1] worked out at 57.2%; in experiment [4], 37.7%.

In the case of `COc1c(OC)c(O)c2c(=O)cc(C)oc2c1Cl`, the inhibition in experiment [1] was determined as 66.8%; in experiment [4], 50.3%. For the same compound, in experiment [2], the “inhibition (INH)” value amounted to 61.11%. The half-inhibitory concentration (IC50) in experiment [3] was 27.2 µM; in experiment [6], 43.4 µM. Further, in experiment [5], the Activity is 0.105 mm.

`CCCCOc1c(OC)c(OC)cc2oc(C)cc(=O)c12`: the inhibition in experiment [1] was 28.4%; in experiment [4] it was 52.5%.

With `C=CCOc1c(OC)c(OC)cc2oc(C)cc(=O)c12`, the figures for the inhibition in experiment [1] and in experiment [4] were 56.2% and 73.9%, respectively. Moreover, in experiment [2], the “inhibition (INH)” value was determined as 66.66%. The results for the IC50 in experiment [3] and in experiment [6] were 38.3 µM and 21.2 µM, respectively. For the same compound, in experiment [5], the Activity came out at 0.09 mm.

On to `Cc1cc(=O)c2c(O)c(O)c(O)cc2o1`, for which the inhibition was 87.5% in experiment [1] and 94.1% in experiment [4]. For the same compound, the “inhibition (INH)” value in experiment [2] came to 90.74%. Besides, the IC50 in experiment [3] is 14.4 µM; in experiment [6], 8.87 µM. Further, in experiment [5], the Activity came out at 0.025 mm.

As to `COc1cc2oc(C)cc(=O)c2c(O)c1OCC=C(C)C`, the inhibition in experiment [1] amounted to 80.7%; in experiment [4], 83.2%. Also, the “inhibition (INH)” value in experiment [2] came to 77.77%. Also, the IC50 worked out at 18.7 µM in experiment [3] and 15.5 µM in experiment [6]. The Activity in experiment [5] is 0.06 mm.

With `COc1c(OC)c(O)c2c(=O)cc(C)oc2c1Br`, the inhibition is 63.8% in experiment [1] and 67% in experiment [4]. Also, in experiment [2], the “inhibition (INH)” value was found to be 70.37%. Besides, the results for the IC50 in experiment [3] and in experiment [6] were 29.3 µM and 25.4 µM, respectively. The Activity in experiment [5] worked out at 0.08 mm.

With `COc1cc2oc(C)cc(=O)c2c(OCC=C(C)C)c1OC`, the inhibition in experiment [1] is 70.1%; in experiment [4] it was 82.5%. Moreover, the “inhibition (INH)” value in experiment [2] was determined as 77.16%. Moreover, the IC50 came to 22.9 µM in experiment [3] and 17.6 µM in experiment [6]. For the same compound, the Activity in experiment [5] is 0.061 mm.

In the case of `CCCOc1c(OC)c(OC)cc2oc(C)cc(=O)c12`, the inhibition in experiment [1] was found to be 40.2%; in experiment [4] it was 48.4%.

As to `COc1cc2oc(C)cc(=O)c2c(O)c1OC` [STELLATIN], the inhibition worked out at 71.5% in experiment [1] and 80.2% in experiment [4]. Moreover, the “inhibition (INH)” value in experiment [2] is reported as 69.44%. For the same compound, the IC50 in experiment [3] is 22.3 µM; in experiment [6], 19.7 µM. In experiment [5], the Activity came to 0.082 mm.

In the case of `COc1cc2oc(C)cc(=O)c2c(O)c1O`, the inhibition in experiment [1] is 78.1%; in experiment [4], 85%. Further, the “inhibition (INH)” value in experiment [2] amounted to 78.4%. Also, the IC50 in experiment [3] was 19.8 µM; in experiment [6] it was 15.4 µM. Also, the Activity in experiment [5] came out at 0.058 mm.

For the compound `COc1cc(O)c2c(=O)cc(C)oc2c1` [EUGENIN], the results for the inhibition in experiment [1] and in experiment [4] were 85.6% and 78.5%, respectively. In addition, in experiment [2], the “inhibition (INH)” value is listed as 73.2%. Also, the IC50 in experiment [3] turned out to be 17.8 µM; in experiment [6], 20.1 µM. In addition, the Activity in experiment [5] came out at 0.071 mm.

In the case of `CCOc1c(OC)c(OC)cc2oc(C)cc(=O)c12`, the inhibition in experiment [1] came out at 54.9%; in experiment [4] it was 49.8%.

Values taken from ChEMBL document CHEMBL1681761, “Synthesis, biological evaluation and molecular docking studies of stellatin derivatives as cyclooxygenase (COX-1, COX-2) inhibitors and anti-inflammatory agents” (Bioorg Med Chem Lett, 2011).
